Assay: pH adjustment of oritavancin/HPCD solution with 1N NaOH: visual observations
Type: physicochemical
Conditions: for Observations: 20% w/v HPCD reconstitution (3 mL aliquot)
Experimental: Reconstituting Orbactiv 400 mg (Oritavancin) in 20% w/v HPCD, diluting in saline then adjusting pH. The 50 mg/mL solution of oritavancin in 20% w/v HPCD (described in Table 3) was further diluted in 0.9% saline to 6 mg/mL in a small glass vial. The pH was adjusted using 1N NaOH. NaOH was added to the oritavancin solution in […] and vortexed. Visual observations and pH were recorded (Table 5).
Reconstituting Orbactiv 400 mg (Oritavancin) in 50% w/v HPCD aqueous solution, adjusting pH then diluting in saline. 6.269 g of HPCD was dissolved in 12.538 mL of water to make a 50% w/v solution (pH=7.23). Seven (7) mL of the 50% w/v solution was added to a 400 mg vial of Orbactiv for a target oritavancin concentration of 57.14 mg/mL. […] A 2 mL aliquot of 57.14 mg/mL was removed from the vial and placed in a small glass vial. The pH was adjusted to 6.5 using 1N NaOH. NaOH was added to the oritavancin solution in 5 μL increments and vortexed. Visual observations and pH were recorded (Table 6).
(§1) Reconstituting Orbactiv 400 mg (Oritavancin) in 50% w/v aqueous HPCD, adjusting pH then diluting in saline. 6.112 g of HPCD was dissolved in 12.224 mL of water to make a 50% w/v solution (pH=6.74). Seven (7) mL of the 50% w/v HPCD solution was added to a 400 mg vial of Orbactiv for a target oritavancin concentration of 57.14 mg/mL. […] A 3 mL aliquot of 57.14 mg/mL was removed from the vial and placed in a small glass vial. The pH was adjusted to 7 using 1N NaOH. NaOH was added to the oritavancin solution in 5 μL increments and vortexed. Visual observations and pH were recorded (Table 8).
as §1, with “20%” for “50%”, “3.555” for “6.112”, “17.775” for “12.224”, “(pH=6.88).” for “(pH=6.74).”, “recorded.” for “recorded”, “10).” for “8).”

**Q.** For `CN[C@H](CC(C)C)C(=O)N[C@H]1C(=O)N[C@@H](CC(N)=O)C(=O)N[C@H]2C(=O)N[C@H]3C(=O)N[C@H](C(=O)N[C@H](C(=O)O)c4cc(O)cc(O)c4-c4cc3ccc4O)[C@H](O[C@H]3C[C@](C)(N)[C@@H](O)[C@H](C)O3)c3ccc(c(Cl)c3)Oc3cc2cc(c3O[C@@H]2O[C@H](CO)[C@@H](O)[C@H](O)[C@H]2O[C@H]2C[C@](C)(NCc3ccc(-c4ccc(Cl)cc4)cc3)[C@@H](O)[C@H](C)O2)Oc2ccc(cc2Cl)[C@H]1O` [Oritavancin], which “pH to which solution could be adjusted without any sign of precipitation” value (57 mg/mL in 20% w/v aqueous HPCD, over 24 hours) is on record?
**A.** The value was 7.

**Q.** And the “pH to which solution could be adjusted without any sign of precipitation” value (57 mg/mL in 50% w/v aqueous HPCD, over 24 hours)?
**A.** Its value is 7.

**Q.** And the “pH to which solution could be adjusted without any sign of precipitation” value (57 mg/mL in 50% w/v aqueous HPCD, over an hour)?
**A.** The value was 6.3.

**Q.** And the Observations (1N NaOH 0 μL, pH 3.95, oritavancin 57.14 mg/mL)?
**A.** Its Observations is “Clear, colorless solution”.

**Q.** What about the Observations (1N NaOH 5 μL, pH 4.11, oritavancin 57.04 mg/mL) of the same molecule?
**A.** The Observations was “Clear, colorless solution”.

**Q.** And the Observations (1N NaOH 10 μL, pH 4.31, oritavancin 56.94 mg/mL)?
**A.** Its Observations is “Clear, colorless solution”.

**Q.** What about the Observations (1N NaOH 15 μL, pH 4.68, oritavancin 56.84 mg/mL) of the same molecule?
**A.** Its Observations is “Clear, colorless solution”.

**Q.** And the Observations (1N NaOH 20 μL, pH 4.89, oritavancin 56.74 mg/mL)?
**A.** Its Observations is “Clear, colorless solution”.

**Q.** What about the Observations (1N NaOH 25 μL, pH 5.19, oritavancin 56.64 mg/mL) of the same molecule?
**A.** The Observations was “Clear, colorless solution”.

**Q.** What about the Observations (1N NaOH 30 μL, pH 5.29, oritavancin 56.54 mg/mL) of the same molecule?
**A.** Its Observations is “Clear, colorless solution”.

**Q.** What about the Observations (1N NaOH 35 μL, pH 5.45, oritavancin 56.44 mg/mL) of the same molecule?
**A.** Its Observations is “Clear, colorless solution”.

**Q.** And the Observations (1N NaOH 40 μL, pH 5.57, oritavancin 56.34 mg/mL)?
**A.** The Observations was “Clear, colorless solution”.

**Q.** And the Observations (1N NaOH 45 μL, pH 5.63, oritavancin 56.23 mg/mL)?
**A.** The Observations was “Clear, colorless solution”.

**Q.** And the Observations (1N NaOH 50 μL, pH 5.69, oritavancin 56.13 mg/mL)?
**A.** The Observations was “Clear, colorless solution”.

**Q.** What about the Observations (1N NaOH 55 μL, pH 5.82, oritavancin 56.03 mg/mL) of the same molecule?
**A.** The Observations was “Clear, colorless solution”.

**Q.** And the Observations (1N NaOH 60 μL, pH 5.87, oritavancin 55.92 mg/mL)?
**A.** Its Observations is “Clear, colorless solution”.

**Q.** And the Observations (1N NaOH 65 μL, pH 5.95, oritavancin 55.82 mg/mL)?
**A.** Its Observations is “Clear, colorless solution”.

**Q.** And the Observations (1N NaOH 70 μL, pH 6.01, oritavancin 55.71 mg/mL)?
**A.** Its Observations is “Clear, colorless solution”.

**Q.** And the Observations (1N NaOH 75 μL, pH 6.06, oritavancin 56.60 mg/mL)?
**A.** The Observations was “Clear, colorless solution”.

**Q.** And the Observations (1N NaOH 80 μL, pH 6.10, oritavancin 55.49 mg/mL)?
**A.** Its Observations is “Clear, colorless solution”.

**Q.** What about the Observations (1N NaOH 85 μL, pH 6.18, oritavancin 55.38 mg/mL) of the same molecule?
**A.** Its Observations is “Clear, colorless solution”.

**Q.** And the Observations (1N NaOH 90 μL, pH 6.20, oritavancin 55.28 mg/mL)?
**A.** Its Observations is “Clear, colorless solution”.

**Q.** What about the Observations (1N NaOH 95 μL, pH 6.24, oritavancin 55.17 mg/mL) of the same molecule?
**A.** The Observations was “Clear, colorless solution”.

**Q.** And the Observations (1N NaOH 100 μL, pH 6.28, oritavancin 55.06 mg/mL)?
**A.** Its Observations is “Clear, colorless solution”.

**Q.** What about the Observations (1N NaOH 105 μL, pH 6.34, oritavancin 54.95 mg/mL) of the same molecule?
**A.** The Observations was “Clear, colorless solution”.

**Q.** And the Observations (1N NaOH 110 μL, pH 6.38, oritavancin 54.85 mg/mL)?
**A.** Its Observations is “Clear, colorless solution”.

**Q.** And the Observations (1N NaOH 115 μL, pH 6.44, oritavancin 54.74 mg/mL)?
**A.** Its Observations is “Clear, colorless solution”.

**Q.** And the Observations (1N NaOH 120 μL, pH 6.49, oritavancin 54.64 mg/mL)?
**A.** The Observations was “Clear, colorless solution”.

**Q.** And the Observations (1N NaOH 125 μL, pH 6.52, oritavancin 54.52 mg/mL)?
**A.** Its Observations is “Clear, colorless solution”.

**Q.** And the Observations (1N NaOH 130 μL, pH 6.54, oritavancin 54.41 mg/mL)?
**A.** The Observations was “Clear, colorless solution”.

**Q.** And the Observations (1N NaOH 135 μL, pH 6.57, oritavancin 54.30 mg/mL)?
**A.** The Observations was “Clear, colorless solution”.

**Q.** And the Observations (1N NaOH 140 μL, pH 6.62, oritavancin 54.19 mg/mL)?
**A.** Its Observations is “Clear, colorless solution”.

**Q.** And the Observations (1N NaOH 145 μL, pH 6.65, oritavancin 54.09 mg/mL)?
**A.** Its Observations is “Clear, colorless solution”.

**Q.** What about the Observations (1N NaOH 150 μL, pH 6.69, oritavancin 53.97 mg/mL) of the same molecule?
**A.** The Observations was “Clear, colorless solution”.

**Q.** And the Observations (1N NaOH 155 μL, pH 6.72, oritavancin 53.86 mg/mL)?
**A.** The Observations was “Clear, colorless solution”.

**Q.** What about the Observations (1N NaOH 160 μL, pH 6.76, oritavancin 53.75 mg/mL) of the same molecule?
**A.** The Observations was “Clear, colorless solution”.

**Q.** And the Observations (1N NaOH 165 μL, pH 6.80, oritavancin 53.63 mg/mL)?
**A.** The Observations was “Clear, colorless solution”.

**Q.** What about the Observations (1N NaOH 170 μL, pH 6.82, oritavancin 53.51 mg/mL) of the same molecule?
**A.** The Observations was “Clear, colorless solution”.

**Q.** What about the Observations (1N NaOH 175 μL, pH 6.86, oritavancin 53.40 mg/mL) of the same molecule?
**A.** The Observations was “Clear, colorless solution”.

**Q.** And the Observations (1N NaOH 180 μL, pH 6.90, oritavancin 53.28 mg/mL)?
**A.** The Observations was “Clear, colorless solution”.

**Q.** What about the Observations (1N NaOH 185 μL, pH 6.93, oritavancin 53.17 mg/mL) of the same molecule?
**A.** Its Observations is “Clear, colorless solution”.

**Q.** And the Observations (1N NaOH 190 μL, pH 6.98, oritavancin 53.05 mg/mL)?
**A.** Its Observations is “Clear, colorless solution”.

**Q.** And the Observations (1N NaOH 195 μL, pH 7.03, oritavancin 52.94 mg/mL)?
**A.** Its Observations is “Clear, colorless solution”.

Reference: patent publication US20170239323A1, “ORITAVANCIN FORMULATIONS” (The Medicines Company, priority 2016, published 2017)
